Data taken from patent US6830885B1, “Nucleic acid molecule, method and kit for selecting a nucleic acid having a desired feature” (priority 2000, dated 2004).
Where two headings read alike, the source gives them in different places.

Legend:
Sindbis viral particles = assay: Virus production from BHK-21 cells infected with VB222-derived Sindbis viral particles under drug treatment; type: cell-based; conditions: multiplicity of infection 0.05, viral particles collected 6 hours later
Procedure: The viral genome was transcribed from plasmid VB222. The exogenous nucleic acid encodes GFP to facilitate detection of transfected and/or infected cells. BHK-21 cells were transfected with said viral genome and viral particles were collected 34 hours later. These viral particles were tittered by standard plaque assay and used to infect BHK-21 cells at a multiplicity of infection of 0.05. The medium was changed one hour post-infection. Drugs were added one hour post-infection at a concentration of 200 nM (okadaic acid) or 30 μg/ml (cerulenin) and viral particles were collected 6 hours later. […] Treatment with the drug could be maintained while propagating the viral particles, thereby further decreasing the number of viral particles produced from viral genomes expressing an exogenous nucleic acid encoding a peptide or protein that is not involved in drug-resistance.

[1] = system: Sindbis-infected BHK-21 cells; conditions: cited from earlier work

| SMILES | decrease in virus production (Sindbis viral particles; cerulenin 30 μg/ml added one hour post-infection) | production of viral particles ([1]; 30 μg/ml) | decrease in virus production (Sindbis viral particles; okadaic acid 200 nM added one hour post-infection) | production of viral particles ([1]; 200 nM) |
| --- | --- | --- | --- | --- |
| C/C=C/C/C=C/CCC(=O)[C@H]1O[C@H]1C(N)=O [cerulenin] | 39 fold | impairs production of viral particles | – | – |
| C=C1[C@@H](O)[C@@H]2O[C@]3(CC[C@H](/C=C/[C@@H](C)[C@@H]4CC(C)=C[C@@]5(O[C@H](C[C@@](C)(O)C(=O)O)CC[C@H]5O)O4)O3)CC[C@H]2O[C@@H]1[C@@H](O)C[C@H](C)[C@H]1O[C@@]2(CCCCO2)CC[C@H]1C [okadaic acid] | – | – | 13 fold | impairs production of viral particles |
